The source of these data is article PMC10145446, “Developing a Formulation Strategy Coupled with PBPK Modeling and Simulation for the Weakly Basic Drug Albendazole” (Pharmaceutics, 2023).

For orientation: solubility means the concentration that dissolves in the medium under given conditions. Usually Km stands for the concentration of substrate that gives half-maximal velocity.

Converted amounts (≈) assume the structure as drawn. Like-named read-outs stand apart in the source and are kept apart here.

One data set in a line: physchem. The settings on record: aqueous pH solution systems (pH solubility profile), 37 °C, aqueous buffer, thermodynamic from solid.
The test system of a further data set is FMO3. The settings on record: ref [36]; cited from earlier work.
Data set [1] is described as follows: Particle size distribution by laser diffraction. The class given is physicochemical. The settings on record: pure ABZ. On the procedure:
Particle size distribution (PSD) data for the marketed formulation are not publicly available. […] The particle size distribution of ABZ was measured by laser diffraction using a Mastersizer 3000 equipped with Aero S (dry dispersion feeder unit). The instrument software was used to calculate d10, d50, and d90, representing the volume percentage or portion of particles below the 10th, 50th, and 90th percentiles, respectively. PSD was characterized as a Weibull distribution function, and the data were analyzed to estimate the Weibull parameter values and mean radiuses, which served as the input parameters in the model development.

The conditions of data set [2]: cited from earlier work.
Data set [3] in a line: PBPK model simulation in Healthy Human Volunteer Population. The settings on record: healthy volunteers, albendazole 400 mg oral. On the procedure: Clinically observed plasma profiles of ABZ and ABZ_SO were digitized from a published study using WebPlotDigitizer (Version 4.2, Austin, TX, USA), and the systemic exposure parameters (Cmax, AUC) were used to verify the model. PBPK model simulations were performed using the Healthy Human Volunteer Population according to the design of the referenced clinical study: 10 subjects (6 male, 4 female), aged 21 to 44 years, single oral dose of albendazole (400 mg). Model verification was based on visual inspection of the simulated ABZ and ABZ_SO mean plasma versus time profiles compared to observed data, and the fold error (ratio of model predicted and observed values) for Cmax and AUC of ABZ and ABZ_SO.

On the set-up of data set [4]: method as in PMID 7571717. The note with it: in humans; ref [43]; cited from earlier work.
Data set [5] in a line: Equilibrium solubility by shake flask method. It counts as physicochemical. On the procedure: The equilibrium solubility of ABZ was measured by the shake flask method at 37 ± 2 °C in different pH solution systems: 0.1 N HCl (pH 1.20 ± 0.01 and pH 2.0 ± 0.01), 0.02 M acetate buffer (pH 4.5 ± 0.02), and 0.05 M phosphate buffer (pH 6.8 ± 0.01). Solubility was also determined in FaSSGF (pH 1.6 ± 0.01), FaSSIF (pH 6.5 ± 0.01), and FeSSIF (pH 5.0 ± 0.01) containing bile concentrations of 0.08 mM, 3 mM, and 15 mM, respectively. For each experiment, an excess amount of ABZ (~10 mg) was dispersed in 3 mL of solution. A sample was collected after 72 h and filtered using 0.45 µm polytetrafluoroethylene membrane disc filters (Pall Corp., New York, NY, USA). The samples were analyzed using a validated HPLC method. All experiments were performed in triplicate. The pH solubility profile and biorelevant solubility data for ABZ were analyzed using Simcyp™ In Vitro Data Analysis (SIVA, Certara UK Ltd., Sheffield, UK) software in order to estimate intrinsic solubility and the micelle-buffer partition coefficient (log Km:w). These parameter values were incorporated into the PBPK model for ABZ.

Details of data set [6]: method as in PMID 29403987. The note with it: healthy volunteers, single oral dose of albendazole 400 mg; ref [41]; cited from earlier work.
The subject of the next data set is CYP3A4. The settings on record: ref [36]; cited from earlier work.
The nature of data set [7]: Transfer system experiment (FaSSGF to FaSSIF) for precipitation kinetics. The note with it: for Precipitation rate constant (PRC): max. value. It counts as physicochemical. As for the experimental part: These experiments were carried out in order to characterize the precipitation kinetics of ABZ in a system designed to mimic the physiologic conditions in the GI tract as the drug moves from the stomach to the small intestine, where precipitation is inevitable and limits the availability of the soluble drug for absorption. To simulate the impact on solubility when the drug transits from the stomach into the intestine, the experimental system (Figure 1) consisted of two physiologically relevant compartments with allowances for modifications in transfer rate (representing the GI emptying rate), paddle speeds (representing the hydrodynamics inside the GI tract), and composition (representing fasted vs. fed conditions). A conventional dissolution system (Distek 5100, Distek Inc., North Brunswick Township, NJ, USA) with a USP-II paddle method was utilized. The gastric compartment contained FaSSGF media (250 mL, pH 1.6), and FaSSIF media (500 mL, pH 6.5), which constituted the intestinal compartment. FaSSIF was prepared with a higher buffer capacity to minimize pH changes after the complete transfer of the simulated gastric media. The paddle speed was maintained at 100 rpm for both compartments. The transfer was initiated after 30 min at a constant rate of 7 mL/min using an Econo™ Gradient pump (Bio-Rad Laboratories, Inc., Hercules, CA, USA). The following experiments were carried out: (a) 40 mg of free ABZ base (neat API) to maintain the sink condition in the gastric media. (b) Marketed immediate-release formulation (equivalent to 40 mg of ABZ) to maintain the sink condition and to determine the effect of excipients on promoting the supersaturation state. (c) Marketed immediate-release tablet formulation (400 mg of ABZ).
The gastric compartment was sampled at 5, 15, and 30 min, at which time the transfer to the intestinal compartment was initiated. Then, samples were collected from the intestinal compartment for an additional 90 min (32, 35, 40, 45, 50, 60, 75, 90, 105, and 120 min). Samples were filtered through 0.45 µm PTFE filters and immediately diluted with the mobile phase before quantitative analysis by HPLC. All dissolution experiments were performed in triplicate.

On the set-up of data set [8]: method as in Literature. The settings on record: ref Literature; cited from earlier work.

Experimental for physchem: The equilibrium solubility of ABZ was measured by the shake flask method at 37 ± 2 °C in different pH solution systems: 0.1 N HCl (pH 1.20 ± 0.01 and pH 2.0 ± 0.01), 0.02 M acetate buffer (pH 4.5 ± 0.02), and 0.05 M phosphate buffer (pH 6.8 ± 0.01). Solubility was also determined in FaSSGF (pH 1.6 ± 0.01), FaSSIF (pH 6.5 ± 0.01), and FeSSIF (pH 5.0 ± 0.01) containing bile concentrations of 0.08 mM, 3 mM, and 15 mM, respectively [25]. For each experiment, an excess amount of ABZ (~10 mg) was dispersed in 3 mL of solution. A sample was collected after 72 h and filtered using 0.45 µm polytetrafluoroethylene membrane disc filters (Pall Corp., New York, NY, USA). The samples were analyzed using a validated HPLC method. All experiments were performed in triplicate. The pH solubility profile and biorelevant solubility data for ABZ were analyzed using Simcyp™ In Vitro Data Analysis (SIVA, Certara UK Ltd., Sheffield, UK) software in order to estimate intrinsic solubility and the micelle-buffer partition coefficient (log Km:w). These parameter values were incorporated into the PBPK model for ABZ.
Data from dissolution experiments were used to estimate intrinsic solubility and bile-salt micelle-mediated solubilization using SIVA. Micelle buffer partition coefficients (log Km:w) for ABZ, both in neutral and ionic species of ABZ, were estimated using observed solubilities in biorelevant media.

For `CCCSc1ccc2nc(NC(=O)OC)[nH]c2c1` [ABZ, Albendazole], the solubility at 72 h is 12 µg/mL (≈ 45.2 µM) in “physchem”; 8 ± 2 µg/mL (≈ 30.2 µM) in [5] (0.02 M acetate buffer, 37 °C, pH 4.5, aqueous buffer, thermodynamic from solid, pH 4.5 Acetate buffer, 37 ± 2.0 °C, read-out: Solubility); around 5 µg/mL (≈ 18.8 µM) in [5] (0.05 M phosphate buffer, 37 °C, pH 6.8, aqueous buffer, thermodynamic from solid, pH 6.8, read-out: solubility); 5 ± 1 µg/mL (≈ 18.8 µM) in data set [5] (0.05 M phosphate buffer, 37 °C, pH 6.8, aqueous buffer, thermodynamic from solid, pH 6.8 Phosphate buffer, 37 ± 2.0 °C, read-out: Solubility); around 500 µg/mL (≈ 1880 µM) in [5] (0.1 N HCl, 37 °C, pH 1.2, simulated gastric fluid, thermodynamic from solid, pH 1.2, read-out: maximum solubility); 515 ± 45 µg/mL (≈ 1940 µM) in [5] (0.1 N HCl, 37 °C, pH 1.2, simulated gastric fluid, thermodynamic from solid, pH 1.2 HCl buffer, 37 ± 2.0 °C, read-out: Solubility). In addition, the solubility at 72 h in data set [5] (0.1 N HCl, pH 2, pH 2.0 HCl buffer, 37 ± 2.0 °C, read-out: Solubility) was 25 ± 5 µg/mL (≈ 94.2 µM); in data set [5] (FaSSGF, 37 °C, pH 1.6, fassgf or other biorelevant, thermodynamic from solid, FaSSGF (pH 1.6), 37 ± 2.0 °C, read-out: Solubility), 146 ± 12 µg/mL (≈ 550 µM); in data set [5] (FaSSGF, 37 °C, pH 1.6, fassgf or other biorelevant, thermodynamic from solid, FaSSGF, read-out: solubility), around 146 µg/mL (≈ 550 µM); in [5] (FaSSIF, 37 °C, pH 6.5, fassif, thermodynamic from solid, FaSSIF (pH 6.5), 37 ± 2.0 °C, read-out: Solubility) it was 8 ± 1 µg/mL (≈ 30.2 µM); in data set [5] (FaSSIF, 37 °C, pH 6.5, fassif, thermodynamic from solid, FaSSIF, read-out: solubility) it was 8.2 µg/mL (≈ 30.9 µM); in data set [5] (FeSSIF, pH 5, FeSSIF (pH 5.0), 37 ± 2.0 °C, read-out: Solubility) it was 21 ± 4 µg/mL (≈ 79.1 µM). Besides, in [5] (FeSSIF, pH 5, FeSSIF, read-out: solubility), the solubility at 72 h was around 20.5 µg/mL (≈ 77.3 µM). For the same compound, the results for the Michaelis constant (Km) with FMO3 and with CYP3A4 were 9.6 µM and 10.1 µM, respectively. Also, the Vmax is 1103 pmol/min/pmol in the data set on FMO3 and 369 pmol/min/pmol with CYP3A4. In addition, the d10 in data set [1] (laser diffraction) was 0.95 ± 0.10 µm. Moreover, in [1] (laser diffraction), the d50 came to 4.1 ± 0.64 µm. In addition, the d90 in data set [1] (laser diffraction) amounted to 22 ± 1.3 µm. Moreover, the “Particle size distribution, Mean Radius” value in data set [1] (polydispersed) amounted to 7.52 µm. Further, in data set [1] (polydispersed), the “Particle size distribution, Weibull Alpha” value turned out to be 1.014. Further, the “Particle size distribution, Weibull Beta” value in data set [1] (polydispersed) was found to be 8.732. Moreover, the “Log Po:w” value in data set [2] (PBPK input, ref [34]) is on record as 2.7. Also, the “pKa1 (Ampholyte)” value in [2] (PBPK input, ref [35]) is 10.3; in data set [2] (PBPK input, ref [35], listed as Albendazole), 10.26. For the same compound, the “pKa2 (Ampholyte)” value in data set [2] (PBPK input, ref [35]) was 2.8. Besides, the BCS class result in data set [2] (low solubility and high permeability) is given as “BCS class II”. In addition, the “Fold error, AUC0–∞ (predicted parameter/observed parameter)” value in data set [3] is given as 1.13. Besides, the “Fold error, Cmax (predicted parameter/observed parameter)” value in data set [3] is on record as 1.16. Also, the absolute oral bioavailability in [4] was below 5%. In data set [5] (FeSSIF vs FaSSIF), the “solubility in FeSSIF compared to FaSSIF” value was 2 fold. Besides, the “AUC0–∞ (observed)” value in data set [6] is 53.0 ng·h/mL. In data set [6], the “Cmax (Observed)” value is given as 9.55 ng/mL. Moreover, in data set [7] (40 mg dose, FaSSGF 250 mL pH 1.6), the “dissolution in FaSSGF within 30 min” value was “completely dissolved”. Further, in data set [7] (40 mg dose, FaSSIF pH 6.5), the “precipitation upon transfer to FaSSIF” value is “immediate precipitation”. Also, the “Critical Supersaturation Ratio (CSR)” value in [7] (set from transfer experiment, FaSSIF) is reported as 1. The “Precipitation rate constant (PRC)” value is 1000 h⁻¹ in data set [7] (set from transfer experiment) and 1000 (max. value) 1/h in data set [7] (set from transfer experiment, listed as Albendazole).

For the compound `CCC[S+]([O-])c1ccc2[nH]c(NC(=O)OC)nc2c1` (stereo not shown) [ABZ_SO, albendazole sulfoxide], the “pKa1 (Ampholyte)” value in data set [2] (PBPK input, ref [35]) is reported as 9.79. The “Log Po:w” value in data set [2] (PBPK input, ref [38]) was 1.17. In addition, in data set [3], the “Fold error, AUC0–∞ (predicted parameter/observed parameter)” value is 0.97 and the “Fold error, Cmax (predicted parameter/observed parameter)” value is on record as 1.01. In addition, in [6], the “AUC0–∞ (observed)” value was 3475 ng·h/mL and the “Cmax (Observed)” value is listed as 193.5 ng/mL. Besides, in data set [8], the “fu (fraction unbound in plasma)” value is 0.3.
